Results reported in patent US20190038611A1, “Novel CYP34A-Specific Inhibitors and Methods of Using Same” (THE REGENTS OF THE UNIVERSITY OF CALIFORNIA, priority 2015, published 2019).
Where “and” joins values, the source holds several entries; their conditions need not be identical. Equal entries are not always repeated. Where two headings read alike, the source gives them in different places.

How the values were obtained:
[1] = molecular target: T1, CYP3A4 (Homo sapiens, UniProt P08684); experiment: Inhibition of BFC O-debenzylation activity of CYP3A4 in a reconstituted system with rat cytochrome P450 reductase
T1 sequence (P08684 with tags, fused parts or gaps): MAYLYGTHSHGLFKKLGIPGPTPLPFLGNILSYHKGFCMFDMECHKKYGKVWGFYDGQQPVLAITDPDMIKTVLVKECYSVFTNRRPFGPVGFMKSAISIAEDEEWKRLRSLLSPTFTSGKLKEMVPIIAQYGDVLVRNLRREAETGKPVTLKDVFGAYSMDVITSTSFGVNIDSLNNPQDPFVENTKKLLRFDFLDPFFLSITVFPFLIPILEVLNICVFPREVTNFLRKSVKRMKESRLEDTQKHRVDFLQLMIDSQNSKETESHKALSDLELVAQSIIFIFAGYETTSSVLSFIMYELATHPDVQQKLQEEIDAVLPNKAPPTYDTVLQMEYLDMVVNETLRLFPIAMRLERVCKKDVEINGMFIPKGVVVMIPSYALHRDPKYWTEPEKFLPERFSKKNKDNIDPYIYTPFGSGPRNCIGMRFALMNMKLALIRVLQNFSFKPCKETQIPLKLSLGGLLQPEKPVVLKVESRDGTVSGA
Method: (§1) Thermal denaturation experiments were conducted as previously described (Sevrioukova and Poulos, 2013 J. Med. Chem. 56: 3733-41) to compare ligand-dependent changes in CYP3A4 stability. The inhibitory potency of the investigated compounds on the 7-benzyloxy-4-(trifluoromethyl)coumarin (BFC) O-debenzylation activity of CYP3A4 was evaluated fluorometrically in a reconstituted system with rat cytochrome P450 reductase (CPR). The reaction was carried out at room temperature in 100 mM phosphate buffer, pH 7.4, containing catalase and superoxide dismutase (2 Units/ml each). A mixture of 1 μM CYP3A4 and 1 μM CPR was preincubated for 1 hour at room temperature and diluted by 20-fold with the assay buffer immediately before measurements. BFC (50 μM) and various concentrations of analogs were added to the protein mixture 2 minutes prior to the reaction initiation with 100 μM NADPH. Formation of 7-hydroxy-4-trifluoromethylcoumarin was followed in a Hitachi F100 fluorometer using λex=430 nm and λem=500 nm. IC50 values were derived from the [% activity] vs. [inhibitor] plots.

[2] = molecular target: T1, CYP3A4; experiment: Thermal denaturation (ligand-dependent changes in CYP3A4 melting temperature); format: binding; parameters: 4-histidine tag (C); made in house; host or cells: E. coli
Method: as §1

[3] = molecular target: T1, CYP3A4; experiment: 442 nm peak in the absorbance spectrum of ligand-bound ferrous CYP3A4
[4] = molecular target: T1, CYP3A4; experiment: Spectral binding titrations (equilibrium titration of CYP3A4, spectral dissociation constant); parameters: 4-histidine tag (C); made in house; host or cells: E. coli
Method: Left insets depict difference spectra between the ligand-free and inhibitor-bound forms. Right insets are plots of the absorbance change versus inhibitor concentration, based on which the Kd values were calculated.

[5] = molecular target: T1, CYP3A4; experiment: Kinetics of ligand binding to CYP3A4 (stopped flow); settings: for kfast (rate constant for the fast phase of the binding reaction): saturating ligand concentrations, room temperature, 2 μM CYP3A4
Method: Kinetics of ligand binding to CYP3A4 was monitored at room temperature in 50 mM phosphate, pH 7.4, in a SX.18MV stopped flow apparatus (Applied Photophysics,
UK) after mixing 2 μM CYP3A4 with various concentrations of ligands. […] Kinetic data were analyzed using the program IgorPro (WaveMetrics, Inc).

[6] = molecular target: T1, CYP3A4
[7] = molecular target: T1, CYP3A4; remark: listed apart in the source
Method: as §1

[8] = read-out: IC50 (concentration required for half-maximal inactivation of recombinant CYP3A4), BFC 50 μM, 100 μM NADPH, room temperature, pH 7.4
[9] = 50 mM phosphate pH 7.4, 20% glycerol, 1 mM dithiothreitol, single site, read-out: Ks (spectral dissociation constant)

CC(C)(C)OC(=O)N[C@H](CSCCC(=O)NCc1cccnc1)CC1CCCCC1 [Compound 11]
IC50 [1, 8]: 30 µM
ΔTm (ligand-dependent changes in the melting temperature of CYP3A4) [2]: −2 ± 0.4 °C
442 nm absorption of the ferrous ligand-bound form of CYP3A4 [3]: considerably smaller
Kd [4, 9]: 10 ± 1 µM
kfast (rate constant for the fast phase of the binding reaction) [5]: 4.0 ± 0.2 s⁻¹

NCCc1ccccn1 [aminoethylpyridine, reference compound]
IC50 [1, 8]: 5000 ± 600 µM
ΔTm (ligand-dependent changes in the melting temperature of CYP3A4) [2]: −0.1 °C
442 nm absorption of the ferrous ligand-bound form of CYP3A4 [3]: undetectable
Kd [4, 9]: 2500 ± 200 µM
kfast (rate constant for the fast phase of the binding reaction) [5]: 0.6 ± 0.1 s⁻¹

c1ccncc1 [pyridine, reference compound]
IC50 ([1]; IC50 (concentration required for half-maximal inactivation of recombinant CYP3A4), BFC 50 μM, 100 μM NADPH, room temperature, pH 7.4): 4000 ± 500 µM
IC50 ([1]; IC50 on the BFC debenzylation activity of CYP3A4, one range given for pyridine, aminoethylpyridine and 5 together): 1000 to 4000 µM
ΔTm (ligand-dependent changes in the melting temperature of CYP3A4) [2]: 0 °C
442 nm absorption of the ferrous ligand-bound form of CYP3A4 [3]: undetectable
Kd [4, 9]: 4500 ± 400 µM
kfast (rate constant for the fast phase of the binding reaction) [5]: 0.5 ± 0.1 s⁻¹

CC(C)(C)OC(=O)N[C@H](CN[C@@H](Cc1ccccc1)C(=O)NCCc1cccnc1)Cc1ccccc1 [Compound 01ERS089, N-BOC-Trp-S-N-Ph-Cys-CONH-Et-Pyr]
IC50 [1]: 0.39 µM
Kd ([4]; calculated from plots of absorbance change versus inhibitor concentration (FIG. 37), read-out: Kd (binding affinity to CYP3A4)): 0.13 µM

CC(C)(C)OC(=O)NCCCCCC(=O)NCc1cccnc1 [Compound 4]
IC50 [1, 8]: 75 µM
ΔTm (ligand-dependent changes in the melting temperature of CYP3A4) [2]: −0.2 °C
442 nm absorption of the ferrous ligand-bound form of CYP3A4 [3]: considerably smaller
Kd [4, 9]: 105 ± 10 µM
kfast (rate constant for the fast phase of the binding reaction) [5]: 20 s⁻¹ and 20 ± 2 s⁻¹

NCCCCCC(=O)NCc1cccnc1 [Compound 5]
442 nm absorption of the ferrous ligand-bound form of CYP3A4 [6]: undetectable
IC50 [1, 8]: 1000 ± 150 µM
ΔTm (ligand-dependent changes in the melting temperature of CYP3A4) [2]: −0.2 °C
Kd ([4]; two binding sites, read-out: KS, second of two binding sites): 4400 µM
Kd ([4]; values derived from the two site saturation fit to a titration curve, two binding sites, read-out: Ks (spectral dissociation constant), two site saturation fit): 10 µM
rate constants of monophasic binding reaction [5]: 0.5 to 0.8 s⁻¹
IC50 [7]: 1000 to 4000 µM

CC(C)(C)OC(=O)N[C@H](CSCCC(=O)NCc1cccnc1)Cc1c[nH]c2ccccc12 [Compound 15b]
IC50 [1, 8]: 0.2 µM and 0.21 µM
change of CYP3A4 Tm / thermal stability upon complex formation [2]: slightly increased
ΔTm (ligand-dependent changes in the melting temperature of CYP3A4) [2]: 0.2 °C
442 nm absorption of the ferrous ligand-bound form of CYP3A4 [3]: pronounced
Kd [4, 9]: 0.5 ± 0.1 µM
kfast (rate constant for the fast phase of the binding reaction) [5]: 8.0 ± 1.5 s⁻¹

CC(C)(C)OC(=O)N[C@H](CSCCC(=O)NCc1cccnc1)Cc1ccccc1 [Compound 15a]
IC50 [1, 8]: 0.5 µM and 0.52 µM
ΔTm (ligand-dependent changes in the melting temperature of CYP3A4) [2]: −1 ± 0.2 °C
442 nm absorption of the ferrous ligand-bound form of CYP3A4 [3]: pronounced
Kd [4, 9]: 0.9 ± 0.1 µM
kfast (rate constant for the fast phase of the binding reaction) [5]: 1.7 s⁻¹ and 1.7 ± 0.2 s⁻¹
